Measured values taken from patent US20100087459A1, “FORMS OF LAPATINIB COMPOUNDS AND PROCESSES FOR THE PREPARATION THEREOF” (priority 2008, published 2010).

Experiment: stability of crystalline Form M1 in commonly used solvents and at high temperature
Format: physicochemical
Conditions: solvents used for production and especially for formulation of the pharmaceutical product

Lapatinib monotosylate [Form M1]
stability in commonly used solvents: high stability
